Data on 22 molecules can be found in patent publication US8071764B2, “Compounds of reverse turn mimetics and the use thereof (2)” (Choongwae Pharma Corporation, priority 2008, dated 2011).

For data set [1], the target named is T1, cDNA-expressed human hepatic CYP3A4 (Homo sapiens, UniProt P08684).
T1 construct: purchased BD Gentest 456202
As to the kind of experiment: P450 CYP3A4 inhibitory activity screening (fluorescent assay, BFC substrate). Type of data set: in vitro ADME. The method, then: Assay was conducted in a 200 μL volume in 96-well microtiter plates using cDNA-expressed human hepatic CYP3A4 (supersome, BD Gentest™ #456202). 7-Benzyloxy-4-trifluoromethyl-coumarin (BFC) was used as a substrate for CYP3A4. Test articles and substrate BFC were dissolved in 100% acetonitrile. The final volume of acetonitrile in the incubation mixture was less than 1% (volume/volume). Potassium phosphate buffer (pH 7.4, final concentration 0.1 M), MgCl2 (final concentration 8.3 mM), EDTA (final concentration 1.67 mM), a test article stock solution, a CYP3A4 supersome and NADPH (final concentration 0.25 mM) were added to each well. The reaction was initiated by the addition of substrate (BFC, final concentration 30 µM) after a 10 min pre-incubation at 37° C. After 10 min incubation at 37° C., the reaction was terminated by the addition of […] of acetonitrile:0.5 M Tris-base=4:1 (volume/volume). Thereafter, Fluorescent signal was measured using a fluorometer. BFC metabolite, 7-hydroxy-4-trifluoromethyl-coumarin, was measured using an excitation wavelength of 409 nm and an emission wavelength of 530 nm.

For a further data set, the system named is Wnt signaling. As to the kind of experiment: TopFlash reporter gene bioassay in SW480 cells. Format: cell-based. The following applies: Homo sapiens. Here is the method:
Inhibition activity against Wnt signaling was measured by the TopFlash reporter. The lower IC50 value means the higher inhibition activity.
TopFlash reporter gene Bioassay for the measurement of IC50 against SW480 cells
The test compound (Compound A) used in this example was prepared in Preparation Example 2. SW480 cells were transfected with the usage of Superfect™ transfect reagent (Qiagen, 301307). Cells were trypsinized briefly 1 day before transfection and plated on 6 well plate (5×10^5 cells/well) so that they were 50-80% confluent on the day of transfection.
Four microgram (TopFlash) and one microgram (pRL-null) of DNAs were diluted in 150 μl of serum-free medium, and 30 μl of Superfect™ transfect reagent was added. The DNA-Superfect mixture was incubated at room temperature for 15 min, and then, 1 ml of 10% FBS DMEM was added to this complex for an additional 3 hours of incubation. While complexes were forming, cells were washed with PBS twice without antibiotics.
The DNA-Superfect™ transfect reagent complexes were applied to the cells before incubating at 37° C. at 5% CO2 for 3 hours. After incubation, recovery medium with 10% FBS was added to bring the final volume to 1.18 ml. After 3 hours incubation, the cells were harvested and reseeded to a 96 well plate (3×10^4 cells/well). After overnight incubation at 37° C. at 5% CO2, the cells were treated with Compound A for 24 hours. […]
In general terms: Reporter assays use an easily measured gene product as a stand-in for the process of interest.

The next data set relates to MV-4-11 cells. As to the kind of experiment: Cell growth inhibition assay on AML cancer cells. Format: cell-based. The following applies: Homo sapiens, MV4-11, 72 hours. The method, then: Cell growth Inhibition assay was performed to investigate the rate of inhibition of cell proliferation by the test compounds. MV-4-11 (human, Acute Myeloid Leukemia cell line) cells were cultured in Iscove's modified Dulbecco's medium (IMDM) including 10% fetal bovine serum (FBS), 1× penicillin/streptomycin (10,000 units/ml Penicillin, […] Streptomycin in 0.85% NaCl). MV-4-11 cells were harvested with IMDM medium and 5×10^4 cells/well were transferred to each well of 96 well culture plates (Nunc, #167008). The test compounds were treated with the serial dilution and duplicated for each concentration. For the serial dilution, the test compounds were repeatedly diluted with the same volume of media onto 96-well assay block (costar, #3956). After the dilution, each compound was added to each well. The background absorbance was also measured during the test compounds treatment by adding the IMDM media in replacement of test compound to the negative control plate. The plates were incubated for 3 days (72 hours) at 37° C. in the humidified incubator containing 5% CO2. On the last day, 20 μL of CellTiter 96 Aqueous One Solution (Promega #G3581) was added to the culture in each well and the plates were incubated for a few hours at 37° C. in the humidified incubator containing 5% CO2. After the incubation, the absorbance of each cell was measured at 490 nm using an EnVision (Perkinelmer, USA). The […] values were calculated using a Prism 3.0 program.

[2] abbreviates: MV-4-11 cells, FIG. 4, read-out: GI50.
Where [3] appears, read: fluorescent assay, read-out: CYP3A4 inhibition, IC50 (μM) fluorescent assay.
Where [4] appears, read: MV-4-11 AML cells, read-out: MV-4-11, GI50.

Read-outs that look alike come from different tables or passages of the source.

One may read the IC50 as the concentration needed to halve the response being measured. The GI50 is the concentration at which growth is held to half of that of the control.

T1 sequence (P08684 whole entry): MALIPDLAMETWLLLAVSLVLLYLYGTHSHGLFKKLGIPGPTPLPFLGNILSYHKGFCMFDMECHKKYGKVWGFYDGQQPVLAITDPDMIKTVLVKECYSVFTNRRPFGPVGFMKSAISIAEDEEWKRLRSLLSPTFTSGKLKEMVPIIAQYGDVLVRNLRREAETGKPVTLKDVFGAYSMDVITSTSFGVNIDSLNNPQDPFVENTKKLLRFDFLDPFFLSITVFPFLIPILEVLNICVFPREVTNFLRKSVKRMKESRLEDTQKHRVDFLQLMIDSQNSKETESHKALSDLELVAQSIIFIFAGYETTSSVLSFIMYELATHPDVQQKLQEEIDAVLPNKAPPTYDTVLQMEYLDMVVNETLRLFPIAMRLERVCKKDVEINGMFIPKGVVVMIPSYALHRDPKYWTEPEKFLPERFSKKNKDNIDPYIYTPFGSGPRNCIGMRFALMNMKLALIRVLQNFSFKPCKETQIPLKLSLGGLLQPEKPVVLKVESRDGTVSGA

As for `C=CCN1CC(=O)N2[C@@H](Cc3ccc(O)cc3)C(=O)N(Cc3ccc4nn(C)nc4c3)C[C@@H]2N1C(=O)NCc1ccccc1` [Compound A, 2-allyl-6-(4-hydroxy-benzyl)-8-(2-methyl-2H-benzotriazol-5-ylmethyl)-4,7-dioxo-hexahydro-pyrazino[2,1-c][1,2,4]triazine-1-carboxylic acid benzylamide], the “inhibition of a CYP3A4 enzyme (in words)” value in data set [1] (FIG. 2) was “weak inhibition”. Further, the IC50 in data set [1] (Table 6, FIG. 2, read-out: IC50 against CYP3A4 activity) was determined as 19.2 µM; in the data set with Wnt signaling (SW480 cells, TopFlash, 24 hours treatment, FIG. 3, read-out: IC50 of Compound A for SW480 cells), 1 ± 0.254 µM. Further, the GI50 in the data set with MV-4-11 cells (setting [2]) worked out at 262 nM.

As to `C=CCN1CC(=O)N2[C@@H](Cc3ccc(O)cc3)C(=O)N(Cc3cccc4c3nnn4CC(N)=O)C[C@@H]2N1C(=O)NCc1ccccc1` [Compound C], in the data set on MV-4-11 cells (setting [2]), the GI50 turned out to be 560 nM.

For `C=CCN1CC(=O)N2[C@@H](Cc3ccc(O)cc3)C(=O)N(Cc3ccc4nn(C)nc4c3)C[C@@H]2N1C(=O)NCc1ccccc1` [compound 1], the 50% inhibitory concentration (IC50) in data set [1] (setting [3]) worked out at 19.2 µM; with Wnt signaling (SW480, TopFlash reporter gene assay, read-out: RGA, IC50 (μM) TopF), 1 ± 0.25 µM. Besides, in the data set on MV-4-11 cells (setting [4]), the GI50 is 260 nM.

For `C=CCN1CC(=O)N2[C@@H](Cc3ccc(O)cc3)C(=O)N(Cc3cccc4nnn(CC(=O)O)c34)C[C@@H]2N1C(=O)NCc1ccccc1` [compound 3], the IC50 in data set [1] (setting [3]) was more than 50 µM.

`C=CCN1CC(=O)N2[C@@H](Cc3ccc(O)cc3)C(=O)N(Cc3cccc4nnn(CC(=O)OCC)c34)C[C@@H]2N1C(=O)NCc1ccccc1` [compound 3]: the GI50 in the data set on MV-4-11 cells (setting [4]) is 710 nM. In the case of `C=CCN1CC(=O)N2[C@@H](Cc3ccc(O)cc3)C(=O)N(Cc3cccc4nnn(CC(=O)N5CCOCC5)c34)C[C@@H]2N1C(=O)NCc1ccccc1` [compound 4], in data set [1] (setting [3]), the IC50 came to 6.23 µM. For the same molecule, the GI50 with MV-4-11 cells (setting [4]) was 930 nM. Take `C=CCN1CC(=O)N2[C@@H](Cc3ccc(O)cc3)C(=O)N(Cc3cccc4c3nnn4CC(=O)OCC)C[C@@H]2N1C(=O)NCc1ccccc1` [compound 5]: the IC50 in data set [1] (setting [3]) is 7.4 µM. In the case of `C=CCN1CC(=O)N2[C@@H](Cc3ccc(O)cc3)C(=O)N(Cc3cccc4nnn(CC(=O)N5CCN(C)CC5)c34)C[C@@H]2N1C(=O)NCc1ccccc1` [compound 5], in the data set with MV-4-11 cells (setting [4]), the GI50 was 2970 nM. For `C=CCN1CC(=O)N2[C@@H](Cc3ccc(O)cc3)C(=O)N(Cc3cccc4c3nnn4CC(=O)O)C[C@@H]2N1C(=O)NCc1ccccc1` [compound 6], the IC50 in data set [1] (setting [3]) is more than 50 µM.

With `C=CCN1CC(=O)N2[C@@H](Cc3ccc(O)cc3)C(=O)N(Cc3cccc4c3nnn4CC(=O)OCC)C[C@@H]2N1C(=O)NCc1ccccc1` [compound 6], the GI50 in the data set with MV-4-11 cells (setting [4]) is 650 nM. Still for that read-out and setting: then `C=CCN1CC(=O)N2[C@@H](Cc3ccc(O)cc3)C(=O)N(Cc3cccc4c3nnn4CC(=O)N3CCOCC3)C[C@@H]2N1C(=O)NCc1ccccc1` [compound 7], with 370 nM. For the molecule `C=CCN1CC(=O)N2[C@@H](Cc3ccc(O)cc3)C(=O)N(Cc3cccc4nnn(CC(=O)N(C)C)c34)C[C@@H]2N1C(=O)NCc1ccccc1` [compound 7], the half-inhibitory concentration (IC50) in data set [1] (setting [3]) came out at 41.1 µM. Consider `C=CCN1CC(=O)N2[C@@H](Cc3ccc(O)cc3)C(=O)N(Cc3cccc4nnn(CC(=O)N(C)C)c34)C[C@@H]2N1C(=O)NCc1ccccc1` [compound 8], for which the GI50 with MV-4-11 cells (setting [4]) was 1920 nM.

On to `C=CCN1CC(=O)N2[C@@H](Cc3ccc(O)cc3)C(=O)N(Cc3cccc4nnn(CC(=O)NCCOC)c34)C[C@@H]2N1C(=O)NCc1ccccc1` [compound 8], for which the IC50 in data set [1] (setting [3]) amounted to 46.9 µM.

Regarding `C=CCN1CC(=O)N2[C@@H](Cc3ccc(O)cc3)C(=O)N(Cc3cccc4c3nnn4CC(=O)N(C)C)C[C@@H]2N1C(=O)NCc1ccccc1` [compound 9], the IC50 in data set [1] (setting [3]) was 38 µM.

As to `C=CCN1CC(=O)N2[C@@H](Cc3ccc(O)cc3)C(=O)N(Cc3cccc4nnn(CC(=O)NCCOC)c34)C[C@@H]2N1C(=O)NCc1ccccc1` [compound 9], in the data set with MV-4-11 cells (setting [4]), the GI50 was 1850 nM. On to `C=CCN1CC(=O)N2[C@@H](Cc3ccc(O)cc3)C(=O)N(Cc3cccc4c3nnn4CC(N)=O)C[C@@H]2N1C(=O)NCc1ccccc1` [compound 12], for which, in the data set with MV-4-11 cells (setting [4]), the GI50 is 560 nM. In the case of `C=CCN1CC(=O)N2[C@@H](Cc3ccc(O)cc3)C(=O)N(Cc3cccc4nnn(CC(N)=O)c34)C[C@@H]2N1C(=O)NCc1ccccc1` [compound 12], the IC50 in data set [1] (setting [3]) worked out at 33.2 µM. Same read-out and setting: then `C=CCN1CC(=O)N2[C@@H](Cc3ccc(O)cc3)C(=O)N(Cc3cccc4c3nnn4CC(=O)NC)C[C@@H]2N1C(=O)NCc1ccccc1` [compound 13], with 32.4 µM. In the case of `C=CCN1CC(=O)N2[C@@H](Cc3ccc(O)cc3)C(=O)N(Cc3cccc4nnn(CC(N)=O)c34)C[C@@H]2N1C(=O)NCc1ccccc1` [compound 13], the concentration for 50% growth inhibition (GI50) in the data set on MV-4-11 cells (setting [4]) turned out to be 3270 nM. On the same count and under the same terms, for `C=CCN1CC(=O)N2[C@@H](Cc3ccc(O)cc3)C(=O)N(Cc3cccc4c3nnn4CC(=O)NCc3ccncc3)C[C@@H]2N1C(=O)NCc1ccccc1` [compound 14] the value was 600 nM; for `C=CCN1CC(=O)N2[C@@H](Cc3ccc(O)cc3)C(=O)N(Cc3cccc4c3nnn4CC(=O)NC)C[C@@H]2N1C(=O)NCc1ccccc1` [compound 15], 180 nM.
